Source: patent US9926306B2, “Inhibition of MCL-1 and/or BFL-1/A1” (Dana-Farber Cancer Institute, Inc., priority 2012, dated 2018)

Key:
[1] = system: wild-type or Bax−/−Bak−/− MEFs; assay: Cell viability (CellTiter-Glo), MEFs; type: cell-based, mouse; conditions: non-malignant fibroblasts, 24 h
Experimental: (§1) p185^+Arf^−/− and MCL-1 or BCL-XL-rescued p185^+Arf^−/−Mcl^−/− cells were maintained in RPMI 1640 (ATCC) supplemented with 10% (v/v) FBS, 100 U/mL penicillin, 100 μg/mL streptomycin, 0.1 mM MEM non-essential amino acids and 50 μM β-mercaptoethanol. Mouse embryonic fibroblasts (MEFs) cells were maintained in DMEM high glucose (Invitrogen) supplemented with 10% (v/v) FBS, 100 U/mL penicillin, 100 μg/mL streptomycin, 2 mM L-glutamine, 50 mM HEPES, 0.1 mM MEM non-essential amino acids and 50 μM β-mercaptoethanol. […] Cell viability was assayed at 24 h by addition of CellTiter-Glo reagent according to the manufacturer's protocol (Promega), and luminescence was measured using a SpectraMax M5 microplate reader (Molecular Devices). Caspase 3/7 activation was assayed at 8 h by addition of Caspase-Glo 3/7 reagent according to manufacturer's protocol (Promega), and luminescence measured using a SpectraMax M5 microplate reader. Viability and caspase assays were performed in duplicate, repeated at least twice with independent cell cultures, and the data normalized to vehicle-treated control wells.

[2] = system: parental p185+Arf−/− CML cells; assay: Cell viability and CalcuSyn synergy, parental leukemia cells; type: cell-based, murine; conditions: Mus musculus; parental cells expressing both MCL-1 and BCL-XL; read-out: IC50, cytotoxicity
Experimental: as §1

[3] = system: MCL-1-rescued p185+Arf−/−Mcl-1−/− CML cells; assay: Cell viability (CellTiter-Glo), MCL-1-dependent leukemia cells; type: cell-based, murine; conditions: MCL-1-dependent cells
Description: A challenges in developing and applying molecular antagonists for BCL-2 family anti-apoptotic proteins is the variable expression of multiple homologues. That is, a cancer cell will only be susceptible to a selective anti-apoptotic inhibitor if the cell is especially dependent on that particular survival protein. […] To test MIM1's activity and specificity in cancer cells, we employed murine p185^+Arf^−/−Mcl-1^−/− chronic myelogenous leukemia (CML) cells that are unable to survive unless reconstituted with MCL-1, reflecting a stringent system for assessing MCL-1 dependence.
p185^+Arf^−/− and MCL-1 or BCL-XL-rescued p185^+Arf^−/−Mcl^−/− cells were maintained in RPMI 1640 (ATCC) supplemented with 10% (v/v) FBS, 100 U/mL penicillin, 100 μg/mL streptomycin, 0.1 mM MEM non-essential amino acids and 50 μM β-mercaptoethanol. […] Cell viability was assayed at 24 h by addition of CellTiter-Glo reagent according to the manufacturer's protocol (Promega), and luminescence was measured using a SpectraMax M5 microplate reader (Molecular Devices). Caspase 3/7 activation was assayed at 8 h by addition of Caspase-Glo 3/7 reagent according to manufacturer's protocol (Promega), and luminescence measured using a SpectraMax M5 microplate reader. […]

[4] = system: BCL-XL-rescued p185+Arf−/−Mcl-1−/− CML cells; assay: Caspase 3/7 activation (Caspase-Glo), BCL-XL-dependent leukemia cells; type: cell-based, murine; conditions: 8 h
Experimental: p185^+Arf^−/− and MCL-1 or BCL-XL-rescued p185^+Arf^−/−Mcl^−/− cells were maintained in RPMI 1640 (ATCC) supplemented with 10% (v/v) FBS, 100 U/mL penicillin, 100 μg/mL streptomycin, 0.1 mM MEM non-essential amino acids and 50 μM β-mercaptoethanol. […] Caspase 3/7 activation was assayed at 8 h by addition of Caspase-Glo 3/7 reagent according to manufacturer's protocol (Promega), and luminescence measured using a SpectraMax M5 microplate reader. Viability and caspase assays were performed in duplicate, repeated at least twice with independent cell cultures, and the data normalized to vehicle-treated control wells.

BCL-XLΔC = BCL-XLΔC (Homo sapiens (Human), UniProt Q07817); assay: BAX-mediated liposomal release assay, suppression by BCL-XL; type: biochemical
BCL-XLΔC, sequence (Q07817 1-212): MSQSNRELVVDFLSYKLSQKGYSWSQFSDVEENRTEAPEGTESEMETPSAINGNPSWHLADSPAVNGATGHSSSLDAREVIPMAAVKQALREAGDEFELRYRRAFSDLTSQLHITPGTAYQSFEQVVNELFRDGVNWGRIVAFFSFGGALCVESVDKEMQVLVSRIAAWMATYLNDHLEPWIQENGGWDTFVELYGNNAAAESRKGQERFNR
Experimental: (§2) Liposomes were prepared and release assays performed as previously described^46,47. Liposomal composition reflects a mixture of the following molar percentages of lipids (Avanti Polar Lipids): phosphatidylcholine, 48%; phosphatidylethanolamine, 28%; phosphatidylinositol, 10%; dioleoyl phosphatidylserine, 10%; and tetraoleoyl cardiolipin, 4%. Aliquots of mixed lipids (1 mg total) are stored in glass at −20° C. under nitrogen, and before use, resuspended in liposome assay buffer (10 mM HEPES, 200 mM KCl, 1 mM MgCl2, pH 7) containing 12.5 mM of the fluorescent dye ANTS (8-aminonaphthalene-1,3,6-trisulfonic acid, disodium salt) and 45 mM of the quencher DPX (p-xylene-bis-pyridinium bromide. The resulting slurry is vortexed for 10 min and freeze-thawed five times in liquid nitrogen and a 40° C. water bath, respectively. The solution is then passed through an Avanti Mini-Extruder Set (#610000) equipped with a 100 nm filter, followed by passage through a Sepharose column (GE Healthcare) to remove residual ANTS/DPX.

[5] = system: BCL-XL-rescued p185+Arf−/−Mcl-1−/− CML cells; assay: Cell viability (CellTiter-Glo), BCL-XL-dependent leukemia cells; type: cell-based, murine; conditions: Mus musculus, 24 h
Experimental: Cell viability was assayed at 24 h by addition of CellTiter-Glo reagent according to the manufacturer's protocol (Promega), and luminescence was measured using a SpectraMax M5 microplate reader (Molecular Devices). […] Viability and caspase assays were performed in duplicate, repeated at least twice with independent cell cultures, and the data normalized to vehicle-treated control wells.

[6] = system: wild-type or Bax−/−Bak−/− MEFs; assay: Caspase 3/7 activation (Caspase-Glo), MEFs; type: cell-based, mouse; conditions: 8 h
Experimental: as §1

MCL-1ΔNΔC [7] = molecular target: T1, MCL-1ΔNΔC (Homo sapiens (Human), UniProt Q07820); assay: BAX-mediated liposomal release assay, suppression by MCL-1; type: biochemical
T1 sequence (Q07820 172-327, stated change not applied): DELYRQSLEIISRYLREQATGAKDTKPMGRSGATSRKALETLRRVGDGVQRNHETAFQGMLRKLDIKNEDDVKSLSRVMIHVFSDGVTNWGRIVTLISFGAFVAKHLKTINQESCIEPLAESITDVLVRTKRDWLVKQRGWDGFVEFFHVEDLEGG
Experimental: as §2

MCL-1ΔNΔC [8] = molecular target: T1, MCL-1ΔNΔC; assay: Competitive fluorescence polarization binding assay, MCL-1; conditions: competitive FP
Experimental: Here, we deployed MCL-1 SAHBA as a high fidelity screening tool to determine if its potency and specificity-of-action could be harnessed for small molecule discovery. […] A compilation of 71,296 small molecules was screened for the capacity to displace FITC-MCL-1 SAHBA from recombinant MCL-1ΔNΔC (aa 172-327) (FIG. 4).
Fluorescence polarization assays (FPA) were performed as previously described^38,39. […] Fluorescence polarization was measured at equilibrium and IC50 values calculated by nonlinear regression analysis of competitive binding curves using Prism software (Graphpad).

- blockade of BCL-XLΔC suppression of tBID-induced BAX activation (BCL-XLΔC): negates
- IC50 [5]: 1.6 µM
- caspase 3/7 activation [6]: no observed caspase 3/7 activation
- blockade of MCL-1ΔNΔC suppression of tBID-induced BAX activation (MCL-1ΔNΔC [7]): no effect
- MCL-1ΔNΔC binding activity (MCL-1ΔNΔC [8]): no activity
Structure (SMILES): CN(C)CC[C@H](CSc1ccccc1)Nc1ccc(S(=O)(=O)NC(=O)c2ccc(N3CCN(Cc4ccccc4-c4ccc(Cl)cc4)CC3)cc2)cc1[N+](=O)[O-] [ABT-737, N-(4-(4-((4′-chloro(1,1′-biphenyl)-2-yl)methyl)piperazin-1-yl)benzoyl)-4-(((1R)-3-(dimethylamino)-1-((phenylsulfanyl)methyl)propyl)amino)-3-nitrobenzenesulfonamide, reference compound]
- effect on viability / toxicity [1]: no significant effect
- IC50 [2]: 5.1 µM
- effect on viability / cytotoxicity [3]: no effect
- caspase 3/7 activation [4]: dose-responsive caspase 3/7 activation
